What follows are compounds tested on Staphylococcus aureus (Sau) 516 cells (assay: Bacterial Susceptibility Testing Methods 2 (microbroth dilution, growth inhibition)). Settings: Staphylococcus aureus, Tested Concentration 8 μg/mL; Staphylococcus aureus 516 cell growth suppressed compared to untreated sample.
Type: cell-based
From the text: Compounds may be tested for antimicrobial activity by susceptibility testing using microbroth dilution methods recommended by CSLI. Compounds may be dissolved in dimethylsulfoxide and tested in 10 doubling dilutions in the susceptibility assays such that the final dimethylsulfoxide concentration in the assay is 2% (v/v). The Staphylococcus aureus (Sau) 516 cells used in the assay may be grown overnight on appropriate agar media and then suspended in the NCCLS-recommended liquid susceptibility-testing media. […] Plates may be incubated under appropriate conditions of atmosphere and temperature and for times according to NCCLS standard methods prior to being read. As used in Table 1 below, the term “inhibition” refers to the percentage of Staphylococcus aureus 516 cell growth that is suppressed (compared to an untreated sample) by the compound of the indicated example number. When tested in the above in-vitro assay, the compounds and salts of the example numbers listed below were tested at the indicated concentrations, providing the indicated inhibitions. In most instances, the highest concentrations at which the compounds were tested was 8 μg/mL. In some instances, however, compounds were tested at concentrations higher than 8 μg/mL, typically when the concentration was first measured in μM and was subsequently converted to μg/mL. In those cases in which compounds were tested at more than one concentration higher than 8 μg/mL, the concentration closest to 8 μg/mL is provided below.

First: COc1ccc2ncc(=O)n(CCN3CC[C@@H](NCc4cc5c(cn4)OCCO5)[C@@H](O)C3)c2c1 [Example 10, 1-(2-{(3S,4R)-4-[(2,3-Dihydro[1,4]dioxino[2,3-c]pyridin-7-ylmethyl)amino]-3-hydroxypiperidin-1-yl}ethyl)-7-methoxyquinoxalin-2(1H)-one]
Second: COc1ccc2ncc(=O)n(CCN3CC[C@H](NCc4cc5c(cn4)OCCO5)[C@H](OC)C3)c2c1 [Example 16, 1-(2-{(3R,4S)-4-[(2,3-Dihydro[1,4]dioxino[2,3-c]pyridin-7-ylmethyl)amino]-3-methoxypiperidin-1-yl}ethyl)-7-methoxyquinoxalin-2(1H)-one]
The inhibition at 8 µg/mL of the first is higher: 100% for the first, 97% for the second.

N#Cc1ccc2ccc(=O)n(CCN3CC[C@@H](NCc4cc5c(cn4)OCCO5)[C@@H](O)C3)c2c1 [Example 4, 1-(2-{(3S,4R)-4-[(2,3-Dihydro[1,4]dioxino[2,3-c]pyridin-7-ylmethyl)amino]-3-hydroxypiperidin-1-yl}ethyl)-2-oxo-1,2-dihydroquinoline-7-carbonitrile] and N#Cc1ccc2ccc(=O)n(CCN3CC[C@@H](NCc4cc5c(cn4)OCCO5)[C@@H](F)C3)c2c1 [Example 12, 1-(2-{(3S,4R)-4-[(2,3-Dihydro[1,4]dioxino[2,3-c]pyridin-7-ylmethyl)amino]-3-fluoropiperidin-1-yl}ethyl)-2-oxo-1,2-dihydroquinoline-7-carbonitrile] are the same in inhibition at 8 µg/mL: 100% for the first, 100% for the second.

CO[C@H]1CN(CCn2c(=O)ccc3ccc(C#N)cc32)CC[C@@H]1NCc1ccc2c(n1)NC(=O)CO2 [Example 44, 1-[2-((3S,4S)-3-Methoxy-4-{[(3-oxo-3,4-dihydro-2H-pyrido[3,2-b][1,4]oxazin-6-yl)methyl]amino}piperidin-1-yl)ethyl]-2-oxo-1,2-dihydroquinoline-7-carbonitrile] and CO[C@@H]1CN(CCn2c(=O)ccc3ccc(C#N)cc32)CC[C@@H]1NCc1ccc2c(n1)NC(=O)CO2 [Example 23, 1-[2-((3R,4S)-3-M ethoxy-4-{[(3-oxo-3,4-dihydro-2H-pyrido[3,2-b][1,4]oxazin-6-yl)methyl]amino}piperidin-1-yl)ethyl]-2-oxo-1,2-dihydro quino line-7-carbonitrile] are the same in inhibition at 8 µg/mL: 100% for the first, 100% for the second.

Compared with COc1ccc2ncc(=O)n(CCN3CC[C@H](NCc4ccc5c(n4)NC(=O)CO5)[C@H](O)C3)c2c1 [Example 8, 6-[({(3R,4S)-3-Hydroxy-1-[2-(7-methoxy-2-oxoquinoxalin-1(2H)-yl)ethyl]piperidin-4-yl}amino)methyl]-2H-pyrido[3,2-b][1,4]oxazin-3(4H)-one], COc1ccc2ncc(=O)n(CCN3CCC(NCc4ccc5c(n4)NC(=O)CO5)C(O)C3)c2c1 (single isomer, unassigned) [Example 30, 6-[({3-Hydroxy-1-[2-(7-methoxy-2-oxoquinoxalin-1(2H)-yl)ethyl]piperidin-4-yl}amino)methyl]-2H-pyrido[3,2-b][1,4]oxazin-3(4H)-one] is lower in inhibition at 8 µg/mL: 99% for the first, 98% for the second.

Going from CO[C@H]1CN(CCn2c(=O)ccc3ccc(C#N)cc32)CC[C@H]1NCc1ccc2c(n1)NC(=O)CS2 [Example 21, 1-[2-((3S,4R)-3-M ethoxy-4-{[(3-oxo-3,4-dihydro-2H-pyrido[3,2-b][1,4]thiazin-6-yl)methyl]amino}piperidin-1-yl)ethyl]-2-oxo-1,2-dihydro quino line-7-carbonitrile] to N#Cc1ccc2ccc(=O)n(CCN3CC[C@H](NCc4ccc5c(n4)NC(=O)CS5)[C@H](O)C3)c2c1 [Example 3, 1-[2-((3R,4S)-3-Hydroxy-4-{[(3-oxo-3,4-dihydro-2H-pyrido[3,2-b][1,4]thiazin-6-yl)methyl]amino}piperidin-1-yl)ethyl]-2-oxo-1,2-dihydroquinoline-7-carbonitrile], the inhibition at 8 µg/mL falls from 100% to 99%.

Going from COc1ccc2ncc(=O)n(CCN3CC[C@@H](NCc4ccc5c(n4)NC(=O)CO5)[C@@H](F)C3)c2c1 [Example 45, 6-[({(3S,4R)-3-Fluoro-1-[2-(7-methoxy-2-oxoquinoxalin-1(2H)-yl)ethyl]piperidin-4-yl}amino)methyl]-2H-pyrido[3,2-b][1,4]oxazin-3(4H)-one] to COc1ccc2ncc(=O)n(CCN3CC[C@@H](NCc4ccc5c(n4)NC(=O)CO5)[C@@H](O)C3)c2c1 [Example 11, 6-[({(3S,4R)-3-Hydroxy-1-[2-(7-methoxy-2-oxoquinoxalin-1(2H)-yl)ethyl]piperidin-4-yl}amino)methyl]-2H-pyrido[3,2-b][1,4]oxazin-3(4H)-one], the inhibition at 8 µg/mL rises from 97% to 100%.

COc1ccc2ncc(=O)n(CCN3CC[C@@H](NCc4ccc5c(n4)NC(=O)CO5)[C@H](OC)C3)c2c1 [Example 28, 6-[({(3R,4R)-3-Methoxy-1-[2-(7-methoxy-2-oxoquinoxalin-1(2H)-yl)ethyl]piperidin-4-yl}amino)methyl]-2H-pyrido[3,2-b][1,4]oxazin-3(4H)-one] gave an inhibition at 8 µg/mL of 98%.

Same assay, conditions: Staphylococcus aureus, Tested Concentration 12 μg/mL; Staphylococcus aureus 516 cell growth

Compound COc1ccc2ncc(=O)n(CCN3CCC(NCc4ccc5c(n4)NC(=O)CO5)C(F)C3)c2c1 (single isomer, unassigned) [Example 36, 6-[({3-Fluoro-1-[2-(7-methoxy-2-oxoquinoxalin-1(2H)-yl)ethyl]piperidin-4-yl}amino)methyl]-2H-pyrido[3,2-b][1,4]oxazin-3(4H)-one] has an inhibition at 12 µg/mL of 90%.

Same assay, conditions: Staphylococcus aureus, Tested Concentration 13 μg/mL; Staphylococcus aureus 516 cell growth

Compound N#Cc1ccc2ccc(=O)n(CCN3CCC(NCc4cc5c(cn4)OCCO5)C(F)C3)c2c1 (single isomer, unassigned) [Example 33, 1-(2-{4-[(2,3-Dihydro[1,4]dioxino[2,3-c]pyridin-7-ylmethyl)amino]-3-fluoropiperidin-1-yl}ethyl)-2-oxo-1,2-dihydroquinoline-7-carbonitrile] has an inhibition at 13 µg/mL of 96%.

Same assay, conditions: Staphylococcus aureus, Tested Concentration 14 μg/mL; Staphylococcus aureus 516 cell growth

COc1ccc2ncc(=O)n(CCN3CCC(NCc4cc5c(cn4)OCCO5)C(F)C3)c2c1 (single isomer, unassigned) [Example 35, 1-(2-{4-[(2,3-Dihydro[1,4]dioxino[2,3-c]pyridin-7-ylmethyl)amino]-3-fluoropiperidin-1-yl}ethyl)-7-methoxyquinoxalin-2(1H)-one] and N#Cc1ccc2ccc(=O)n(CCN3CC[C@@H](NCc4ccc5c(n4)NC(=O)CO5)[C@@H](F)C3)c2c1 [Example 50, 1-[2-((3S,4R)-3-Fluoro-4-{[(3-oxo-3,4-dihydro-2H-pyrido[3,2-b][1,4]oxazin-6-yl)methyl]amino}piperidin-1-yl)ethyl]-2-oxo-1,2-dihydro quino line-7-carbonitrile] are the same in inhibition at 14 µg/mL: 100% for the first, 100% for the second.

Same assay, conditions: Tested Concentration 8 μg/mL; Staphylococcus aureus 516 cell growth suppressed compared to untreated sample

Going from COc1ccc2ncc(=O)n(CCN3CCC(NCc4cc5c(cn4)OCCO5)C(O)C3)c2c1 (single isomer, unassigned) [Example 31, 1-(2-{4-[(2,3-dihydro[1,4]dioxino[2,3-c]pyridin-7-ylmethyl)amino]-3-hydroxypiperidin-1-yl}ethyl)-7-methoxyquinoxalin-2(1H)-one] to COc1ccc2ncc(=O)n(CCN3CCC(NCc4ccc5c(n4)NC(=O)CO5)C(O)C3)c2c1 (single isomer, unassigned) [Example 32, 6-[({3-Hydroxy-1-[2-(7-methoxy-2-oxoquinoxalin-1(2H)-yl)ethyl]piperidin-4-yl}amino)methyl]-2H-pyrido[3,2-b][1,4]oxazin-3 (4H)-one], the “Inhibition (%)” value rises from 87% to 98%.

CO[C@@H]1CN(CCn2c(=O)ccc3ccc(C#N)cc32)CC[C@H]1NCc1cc2c(cn1)OCCO2 [Example 41, 1-(2-{(3R,4R)-4-[(2,3-dihydro[1-yl]dioxino[2,3-c]pyridin-7-ylmethyl)amino]-3-methoxypiperidin-1-yl}ethyl)-2-oxo-1,2-dihydro quinoline-7-carbonitrile] and COc1ccc2ncc(=O)n(CCN3CC[C@H](NCc4ccc5c(n4)NC(=O)CS5)[C@H](O)C3)c2c1 [Example 9] are the same in “Inhibition (%)” value: 100% for the first, 100% for the second.

Same assay, conditions: Tested Concentration 12 μg/mL; Staphylococcus aureus 516 cell growth

First: COc1ccc2ncc(=O)n(CCN3CCC(NCc4ccc5c(n4)NC(=O)CO5)C(F)C3)c2c1 (single isomer, unassigned) [Example 40, 6-[({3-Fluoro-1-[2-(7-methoxy-2-oxoquinoxalin-1(2H)-yl)ethyl]piperidin-4-yl}amino)methyl]-2H-pyrido[3,2-b][1,4]oxazin-3 (4H)-one]
Second: N#Cc1ccc2ccc(=O)n(CCN3CCC(NCc4ccc5c(n4)NC(=O)CO5)C(F)C3)c2c1 (stereo not drawn) [Example 34]
The “Inhibition (%)” value of the first is higher: 100% for the first, 91% for the second.

Same assay, conditions: Tested Concentration 13 μg/mL; Staphylococcus aureus 516 cell growth

With N#Cc1ccc2ccc(=O)n(CCN3CCC(NCc4cc5c(cn4)OCCO5)C(F)C3)c2c1 (single isomer, unassigned) [Example 37, 1-(2-{4-[(2,3-Dihydro[1,4]dioxino[2,3-c]pyridin-7-ylmethyl)amino]-3-fluoropiperidin-1-yl}ethyl)-2-oxo-1,2-dihydroquinoline-7-carbonitrile] the “Inhibition (%)” value was 100%.

From patent publication US20120270864A1, “2-QUINOLINONE AND 2-QUINOXALINONE-DERIVATIVES AND THEIR USE AS ANTIBACTERIAL AGENTS” (ASTRAZENECA AB, priority 2006, published 2012)
